Key:
[1] = test system: male Sprague-Dawley (SD) rat; assay: Permanent middle cerebral artery occlusion (MCAO) stroke model; type: in vivo
Protocol: More particularly, a permanent middle cerebral artery (MCA) occlusion model was prepared using a male Sprague-Dawley (SD) rat aged 8 to 9 weeks. At time points of 30 minutes before MCAO and 10 minutes after the same, cerebral blood flow (CBF) was measured by a laser-doppler flowmeter and the measured results are shown in Table 3 below. Then, 15 minutes after middle cerebral artery occlusion (MCAO), the compound #28, which is finally selected as an AMPK inhibitor (75 ng/3 μl), or a vehicle (10% DMSO) was provided to an area of 0.8 mm on a back and 1.2 mm on a lateral of bregma at a depth of 3.8 mm through intra-cerebroventricular injection. Thereafter, a degree of lack of movement (‘motor deficit’) was evaluated in the rat, in particular, standards for evaluation are classified as follows (Longa et al., 1989): no deficiency (normal); failure of extending the front foots when vertically stopping (mild); rotation on the opposite side (moderate); and rotation loss (loss of circling) or loss of reflex motion (serious deficit). After induction of ischemia in the rat model, the brain was obtained at the time of lapse of 24 hours, followed by determining a level of cerebral infraction by staining the brain with 2% 2,3,5-triphenyl tetrazolium chloride (TTC).

[2] = Calcium chelation with Fura-2 dye (test tube); type: physicochemical
Protocol: (§1) In order to determine whether the above result is obtained by the chelation of Ca^2+ ions other than the drug #28, protective effects of the drug #28 (10 to 60 μM) after treatment using ionomycin, which is a calcium ion permeable carrier (‘calcium ionophore’) directly increasing the intracellular calcium concentration, were under observation. Further, using a Fura-2 dye that is combined with calcium to represent fluorescence, it was monitored whether the drug #28 is combined with calcium on a test tube and represents chelating effects.

mouse cortical cultures = assay: TPEN-induced neurotoxicity (LDH secretion); type: cell-based
Text: Generally, application of TPEN as a zinc chelator easily flowing into the cells causes a cell death in the form of typical apoptosis (EDTA is not introduced into the cells). When adding zinc to the above treatment, intracellular free zinc ions are retained thus to reduce neuronal death and further reduce caspase-3 protease activity in the apoptosis process. Under expectation such that: the drug #28 and clioquinol may not only serve as a chelator but also play a role of an ion permeable carrier; these drugs flow into cells as combined with zinc; thereafter, the zinc is removed from the drug because a concentration of free zinc in the cytoplasm is too low; therefore, the concentration of free zinc in the cytoplasm is increased thus to reduce neurotoxicity due to TPEN, caspase-3 activity and neurotoxicity (LDH secretion) were under observation after treatment using zinc, the drug #28 and clioquinol.

neuronal cells = assay: Ionomycin (calcium ionophore) neurotoxicity; type: cell-based; settings: 10 to 60 μM tested
Protocol: as §1

[3] = test system: cultured cerebral cortex neurons of a mouse; assay: Zinc neurotoxicity inhibition, LDH assay (tertiary screening); type: cell-based; settings: 300 μM zinc 10 min
Protocol: Cerebral cortex neurons of a mouse used in the present invention were extracted from the mouse embryos brain and cultured, followed by further culturing the same using a Dulbecco's modified Eagle's medium (DMEM, Gibco, Grand Island, N.Y., US) containing 5% fetal bovine serum (FBS) and 5% horse serum (HS) under conditions of 95% humidity, 5% CO2 and 37° C. temperature. For activation and differentiation of the above cells, these cells were proliferated at a density of 2×10^4 cells in 24-well tissue culture plate. Further, prior to treatment using zinc and the compounds, the cells were incubated in MEM medium without FBS and HS.
More particularly, the cultured cerebral cortex neurons of a mouse were briefly exposed to 300 μM zinc for 10 minutes, and then treated with the selected 40 drugs, respectively, in order to observe neuro-protective effects. A degree of neuronal death of these cells was quantified by LDH assay wherein effects of individual drugs were averaged to result in a numerical value, and separate experiments were performed on each of the selected drugs 4 times, respectively (FIG. 4).

## O=C1N=C(Nc2cccc(O)c2)S/C1=C\c1c[nH]c2ccccc12 [compound 28, (Z)-5-((1H-indol-3-yl)methylene)-2-((3-hydroxyphenyl)amino)thiazol-4(5H)-one]
[1]; 75 ng/3 μl intra-cerebroventricular 15 min after MCAO, TTC staining at 24 hours
  brain damage due to permanent MCAO: significantly inhibit brain damage
[1]; MCAO rat, 75 ng/3 μl intra-cerebroventricular
  Weight reduction: 43.8 ± 6.1 g
[2]
  affinity to calcium ions versus zinc ions: lower affinity to calcium ions than zinc ions
[2]; Fura-2 dye, test tube
  chelating effects for calcium: shows the chelating effects for calcium in a high concentration
Mouse cortical cultures
  neurotoxicity by TPEN: decrease neurotoxicity by TPEN
Neuronal cells
  concentration exhibiting toxicity protective effects against ionomycin: more than 40 μM
[3]
  inhibition of zinc toxicity: significantly inhibit zinc toxicity
